From PMC8401948, “Improving the Solubility and Oral Bioavailability of a Novel Aromatic Aldehyde Antisickling Agent (PP10) for the Treatment of Sickle Cell Disease” (Pharmaceutics, 2021)
Values after ≈ are worked out from the molar mass of the structure shown.

Tests used:
[1] = test system: sickle red blood cell (SS blood); test: In vitro antisickling study with sickle whole blood; format: cell-based, human; details: for antisickling effect (RBC sickling inhibition): SS blood HCT 20%, 0.5, 1 and 2 mM, hypoxia 2.5% O2
Description: (§1) The parent PP10, its acid metabolite PP10-acid, and the sodium salt PP10-NaSalt were tested using homozygous sickle cell (SS) blood for their pharmacologic activities. Leftover blood samples from individuals with SS were obtained (based on an approved IRB protocol at the Children’s Hospital of Philadelphia, with informed consent) and used for in vitro antisickling, Hb modification, and oxygen equilibrium studies following methods previously published by our group. For the antisickling study, SS blood samples (hematocrit 20%) were incubated under air in the absence or presence of PP10, PP10-acid, or PP10-NaSalt (0.5 mM, 1 mM, and 2 mM) at 37 °C for 1 h, followed by incubation of the mixture under hypoxic conditions (2.5% O2/97.5% N2) at 37 °C for 2 h. Aliquots were fixed with 2% glutaraldehyde solution in sodium cacodylate buffer, pH 7.4, without exposure to air, and then subjected to microscopic morphological analysis of bright field images (at 40× magnification) of single layer cells on an Olympus BX40 microscope fitted with an Infinity 2 camera and coupled with Image Capture cellSens software (Olympus, Tokyo, Japan).

[2] = test system: Hb; test: Hb oxygen equilibrium study (Hemox Analyzer, P50 shift); format: cell-based, human; details: 2 mM, SS blood
Description: as §1, with “Aliquots were fixed with 2% glutaraldehyde solution in sodium cacodylate buffer, pH 7.4, without exposure to air, and then subjected to microscopic morphological analysis of bright field images (at 40× magnification) of single layer cells on an Olympus BX40 microscope fitted with an Infinity 2 camera and coupled with Image Capture cellSens software (Olympus, Tokyo, Japan).” left out
(§2) Residual samples from the above study were washed in phosphate-buffered saline and hemolyzed by hypotonic lysis in deionized water for the oxygen equilibrium and Hb modification (Hb adduct formation) studies. […] The areas of new peaks, representing HbS adducts, were obtained, calculated as percentages of total Hb area, and reported as levels of modified Hb or Hb adduct. […] Degree of Hb O2 affinity shift (ΔP50) was expressed as percentage of control DMSO-treated samples.

[3] = target: T1, HbS (Homo sapiens, UniProt P68871+P69905, E7V); test: Hb modification (Hb adduct formation), cation-exchange HPLC; format: cell-based; details: SS blood, 0.5, 1 and 2 mM
T1 construct: tested using homozygous sickle cell (SS) blood for their pharmacologic activities; from tissue; host or cells: Whole blood (red blood cells) from individuals with homozygous sickle cell disease
Description: as §1, with “Aliquots were fixed with 2% glutaraldehyde solution in sodium cacodylate buffer, pH 7.4, without exposure to air, and then subjected to microscopic morphological analysis of bright field images (at 40× magnification) of single layer cells on an Olympus BX40 microscope fitted with an Infinity 2 camera and coupled with Image Capture cellSens software (Olympus, Tokyo, Japan).” left out
as §2

[4] = Pharmacokinetics study in rats, whole blood PP10-acid; format: in vivo, Sprague-Dawley rats; details: rat, all analyses
Description: A single-dose one-period parallel design was utilized to investigate the pharmacokinetics of pure PP10, the polymeric-PP10 binary systems with PVP-K90 and HP-β-CD, and the PP10-TPGS aqueous micelle solution formulation. The study was conducted according to the guidelines of Good Clinical Practice (GCP), the International Conference on Harmonization (ICH), and the European Medicines Agency (EMA). The protocol for the animal study received prior approval from the Research Ethics Committee, Faculty of Pharmacy, King Abdulaziz University, Saudi Arabia (reference no. PH-1442-68) in 04/03/2021.
Male Sprague-Dawley rats (300–350 g) were used. The animals were maintained on a 12 h light/dark cycle (lights-on at 7 a.m.) with free access to food and water in a temperature-controlled room. After 7 days of acclimatization, animals were classified into four groups (n = 6). Group I was administered oral drug tablets containing pure drug (positive control). Group II was given oral drug tablets containing PP10-PVP K90 binary system. […]
The concentration of the parent PP10 and PP10-acid metabolite in the whole blood samples were determined using a gradient elution HPLC chromatographic condition using a Waters Symmetry Shield C18 (Waters, MA, USA), 5 µm 3.9 × 150 mm column, and a Waters 2998 PDA detector (Waters, MA, USA) with detection wavelength adjusted to 274 nm. […]

[5] = Stability of PP10 at different pHs (HPLC, MASS scan); format: physicochemical
Description: The parent PP10 could hydrolyze into the corresponding PP10-acid either chemically (acid/base hydrolysis) or by the action of esterase in the blood, which could affect the PK and/or PD properties. This potential hydrolysis behavior was studied by investigating the stability of the parent methylester compound in buffer at different pHs, and in blood. To examine potential chemical degradation, a solution of PP10 (2 mg/mL) was prepared in methanol. Known volume (1 mL) of this methanol solution was diluted with a definite volume (20 mL) of buffer at pH 1.2, 5.5, or 7.4, corresponding to the gastric pH, the pH of the proximal small intestine, and the pH of the terminal ileum or physiological body fluids, respectively. Methanolic drug solution of the same concentration was also prepared as a reference. The different pH mixtures were incubated in a water bath at 37 °C overnight. The high-performance liquid chromatography (HPLC) chromatogram of the parent compound (methanolic drug solution) was compared with the corresponding drug buffer samples. The molecular weight of degraded product(s) was investigated using MASS scan. Details of the apparatus and conditions are described below.

[6] = Equilibrium aqueous solubility of PP10 and polymeric-PP10 binary systems; format: physicochemical; details: distilled water, 25 °C
Description: The equilibrium solubility of pure PP10 and the three polymeric drug binary systems with PVP-K90, Eudragit L100-55, or HP-β-CD were studied to investigate the effect of the complexation on the aqueous solubility of PP10. An excess quantity of the pure drug or the prepared binary systems was added to 5 mL of distilled water in a screw-capped vial and transferred to a thermostatically controlled shaking water bath (Model 1031; GFL Corporation, Burgwedel, Germany) at 25 ± 0.5 °C for 72 h. […] Drug stock solution was prepared in methanol and different standard drug solutions in the range of 2–10 µg/mL were prepared. The absorbance of the prepared standard solutions was measured, resulting in a correlation coefficient (R^2) of 0.9986.

[7] = set-up: method as in PMID 33205981; details: in vitro, whole blood; cited from earlier work

| stability (hydrolysis to PP10-acid) ([5]; buffer pH 1.2, 37 °C overnight) | stability (hydrolysis to PP10-acid) ([5]; buffer pH 5.5, 37 °C overnight) | stability (hydrolysis to PP10-acid) ([5]; buffer pH 7.4, 37 °C overnight) | stability ([5]; straight methanol, 37 °C overnight) | solubility at 72 h [6] | SMILES | antisickling effect (RBC sickling inhibition) [1] | increase of Hb oxygen affinity compared with the ester (PP10) [2] | Hb adduct formation [3] | inhibition at 2000 µM ([1]; Homo sapiens, Erythrocyte, 2 mM, SS blood, read-out: RBC sickling inhibition more than PP10-acid) | parent PP10 compound in whole blood after dosing [4] | parent PP10 hydrolyzed into the PP10-acid metabolite [7] |
| --- | --- | --- | --- | --- | --- | --- | --- | --- | --- | --- | --- |
| – | – | – | – | – | O=Cc1c(O)cccc1OCc1cccc(C(=O)O)n1 [PP10-acid] | dose-dependent antisickling effect | about 30% | – | – | – | – |
| – | – | – | – | – | O=Cc1c(O)cccc1OCc1cccc(C(=O)[O-])n1.[Na+] [PP10-NaSalt] | almost no activity | – | significantly less adduct formation | – | – | – |
| most significant degradation | degrades into the acid form | degrades into the acid form | stable | 0.012 ± 0.002 mg/mL (≈ 41.8 µM) | COC(=O)c1cccc(COc2cccc(O)c2C=O)n1 [PP10, Methyl 6-((2-formyl-3-hydroxyphenoxy)methyl) picolinate] | dose-dependent antisickling effect | – | highest Hb adduct formation | 36% | No parent PP10 compound (PP10) was observed in any of the analyses | about 20% |
